Values quoted from earlier work in PMC4716540 (British Journal of Cancer, 2015).

Test system: haematological and solid tumours
Conditions: early clinical trials; ref Zhou et al, 2012; cited from earlier work

| Structure (SMILES) | Visual disorders (blurred vision, flashes, delayed light/dark accommodation, photophobia) |
| --- | --- |
| CO[C@H]1/C=C\C=C(/C)C(=O)NC2=CC(=O)C(NCCN(C)C)=C(C[C@@H](C)C[C@H](OC)[C@H](O)[C@@H](C)/C=C(\C)[C@@H]1OC(N)=O)C2=O [alvespimycin] | associated with visual disorders |
| CC1(C)CC(=O)c2c(C(F)(F)F)nn(-c3ccc(C(N)=O)c(N[C@H]4CC[C@H](OC(=O)CN)CC4)c3)c2C1 [SNX-5422] | associated with visual disorders |
